From ChEMBL document CHEMBL1129176, “Enantio-dependence of inducer-specific bidirectional regulation of tumor necrosis factor (TNF)-alpha production: Potent TNF- production inhibitors” (1996) come the findings set out here.

Assay type in all cases: functional, Homo sapiens
For assay [1], the system named is HL-60. The assay can be described thus: Compound was evaluated for the amount of TNF-alpha produced by HL-60 cells in the presence of 12-O-tetradecanoylphorbol-13-acetate (TPA) at concentration 0.3 uM.
Assay [2] relates to HL-60. Put plainly: Compound was evaluated for the amount of TNF-alpha produced by HL-60 cells in the presence of Okadaic acid (OA) at concentration 0.3 uM.
Assay [3] concerns HL-60. Put plainly: Compound was evaluated for the amount of TNF-alpha produced by HL-60 cells in the presence of 12-O-tetradecanoylphorbol-13-acetate (TPA) at concentration 30 uM.
In assay [4] the test system is HL-60. The assay can be described thus: Compound was evaluated for the amount of TNF-alpha produced by HL-60 cells in the presence of Okadaic acid (OA) at concentration 30 uM.

For the molecule `C[C@@H](c1ccccc1)N1C(=O)c2c(F)c(F)c(F)c(F)c2C1=O`, the Production in assay [1] is 143%; in assay [2], 70%.

Turning to `C[C@@H](C1CCCCC1)N1C(=O)c2c(F)c(F)c(F)c(F)c2C1=O`, the results for the Production in assay [1] and in assay [2] were 124% and 65%, respectively.

Regarding `C[C@H](c1cccc2ccccc12)N1C(=O)c2c(F)c(F)c(F)c(F)c2C1=O`, the Production in assay [1] stood at 100%; in assay [2], 2%.

On to `C[C@@]1(N2C(=O)c3ccccc3C2=O)CCC(=O)NC1=O`, for which the Production turned out to be 103% in assay [3] and 39% in assay [4].

On to `O=C1CCC(N2C(=O)c3ccccc3C2=O)C(=O)N1` (stereo not drawn) [THALIDOMIDE], for which the values for the Production in assay [3] and in assay [4] were 135% and 58%, respectively.

As for `C[C@]1(N2C(=O)c3ccccc3C2=O)CCC(=O)NC1=O`, the Production in assay [3] was 358%; in assay [4] it was 75%.

`C[C@H](C1CCCCC1)N1C(=O)c2c(F)c(F)c(F)c(F)c2C1=O`: the results for the Production in assay [1] and in assay [2] were 98% and 10%, respectively.

Take `C[C@@H](c1cccc2ccccc12)N1C(=O)c2c(F)c(F)c(F)c(F)c2C1=O`: the Production in assay [1] and in assay [2] was 101% throughout.

Regarding `C[C@H](c1ccccc1)N1C(=O)c2c(F)c(F)c(F)c(F)c2C1=O`, the values for the Production in assay [1] and in assay [2] were 97% and 2%, respectively.
